Conditions: liquid nasal compositions, common storage conditions
Description: The present inventors have accordingly conducted extensive researches for finding a suitable stabilizing agent.

N.N.O=C(O)C(O)C(O)C(=O)O (stereo not shown) [ammonium tartrate]
stabilizing activity on liquid compositions containing polypeptides: satisfactory stabilizing agent
